Results reported in US8822505B2, “Azetidine derivatives” (Hoffmann-La Roche Inc., priority 2012, dated 2014).

Columns and labels:
human Cat L = human Cat L (Homo sapiens (Human), UniProt P07711); experiment: Cathepsin enzyme inhibition assay (human Cat L); assay type: biochemical; details: enzyme 1 nM, substrate Z-Val-Val-Arg-AMC 20 μM, pH 6.5
Protocol: (§1) Cathepsin Enzyme Inhibition Assay
(§2) Enzyme activity is measured by observing the increase in fluorescence intensity caused by cleavage of a peptide substrate containing a fluorophore whose emission is quenched in the intact peptide.
(§3) Assay buffer: 100 mM potassium phosphate pH 6.5, EDTA-Na 5 mM, Triton X-100 0.001%, DTT 5 mM.
(§4) Enzymes (all at 1 nM): human and mouse Cathepsin S, Cat K, Cat B, Cat L.
(§5) Substrate (20 μM): Z-Val-Val-Arg-AMC, except for Cat K which uses Z-Leu-Arg-AMC (both from Bachem).
Excitation 360 nm, Emission 465 nm.
Enzyme is added to the substance dilutions in 96-well microtitre plates and the reaction is started with substrate. Fluorescence emission is measured over 20 minutes, during which time a linear increase is observed in the absence of inhibitor. IC50 are calculated by standard methods.
Inhibition of human Cat S, mouse Cat S, human Cat K, human Cat B, human Cat L and mouse Cat L have been measured separately. The results obtained for human Cat S and L for representative compounds of the invention are expressed in the following table in μM.

human Cat S = human Cat S (Homo sapiens (Human), UniProt P25774); experiment: Cathepsin enzyme inhibition assay (human Cat S); assay type: biochemical; details: enzyme 1 nM, substrate Z-Val-Val-Arg-AMC 20 μM, pH 6.5
Sequence of human Cat S (P25774 115-331): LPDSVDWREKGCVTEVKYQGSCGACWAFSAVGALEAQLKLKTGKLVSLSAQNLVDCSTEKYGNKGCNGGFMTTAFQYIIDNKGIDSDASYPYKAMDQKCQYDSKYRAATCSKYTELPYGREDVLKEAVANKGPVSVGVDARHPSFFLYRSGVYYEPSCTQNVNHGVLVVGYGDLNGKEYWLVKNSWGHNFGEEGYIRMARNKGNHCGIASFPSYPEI
Protocol: as §1, §2, §3, §4, §5
Enzyme is added to the substance dilutions in 96-well microtitre plates and the reaction is started with substrate. […] IC50 are calculated by standard methods.
Inhibition of human Cat S, mouse Cat S, human Cat K, human Cat B, human Cat L and mouse Cat L have been measured separately.

Sequence of human Cat L (P07711 114-333): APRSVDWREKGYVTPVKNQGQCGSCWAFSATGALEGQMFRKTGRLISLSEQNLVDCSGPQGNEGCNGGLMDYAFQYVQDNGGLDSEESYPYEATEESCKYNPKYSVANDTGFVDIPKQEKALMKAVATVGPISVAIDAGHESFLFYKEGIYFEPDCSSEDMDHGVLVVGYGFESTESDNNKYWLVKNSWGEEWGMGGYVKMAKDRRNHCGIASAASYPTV

With `COc1ccc(S(=O)(=O)[C@@H]2C[C@@H](C(=O)NC3(C#N)CC3)N(C(=O)C3(c4ccc(Cl)cn4)CN(C(=O)OC(C)(C)C)C3)C2)c(Cl)c1` [Example 1, 3-[(2S,4R)-4-(2-Chloro-4-methoxy-benzenesulfonyl)-2-(1-cyano-cyclopropylcarbamoyl)-pyrrolidine-1-carbonyl]-3-(5-chloro-pyridin-2-yl)-azetidine-1-carboxylic acid tert-butyl ester] the IC50 (human Cat L) was 1070 nM and the IC50 (human Cat S) was 3.22 nM.
Molecule `COc1ccc(S(=O)(=O)[C@@H]2C[C@@H](C(=O)NC3(C#N)CC3)N(C(=O)C3(c4ccc(Cl)cn4)CNC3)C2)c(Cl)c1` [Example 2, (2S,4R)-4-(2-Chloro-4-methoxy-benzenesulfonyl)-1-[3-(5-chloro-pyridin-2-yl)-azetidine-3-carbonyl]-pyrrolidine-2-carboxylic acid (1-cyano-cyclopropyl)-amide] has an IC50 (human Cat L) of 38.1 nM and an IC50 (human Cat S) of 1.49 nM.
`COc1ccc(S(=O)(=O)[C@@H]2C[C@@H](C(=O)NC3(C#N)CC3)N(C(=O)C3(c4ccc(Cl)cn4)CN(C)C3)C2)c(Cl)c1` [Example 3, (2S,4R)-4-(2-Chloro-4-methoxy-benzenesulfonyl)-1-[3-(5-chloro-pyridin-2-yl)-1-methyl-azetidine-3-carbonyl]-pyrrolidine-2-carboxylic acid (1-cyano-cyclopropyl)-amide] was tested, and the IC50 (human Cat L) was 292 nM and the IC50 (human Cat S) was 1.2 nM.
In the case of `CC(C)(C)OC(=O)N1CC(C(=O)N2C[C@H](S(=O)(=O)c3ccc(OCC(F)(F)F)cc3Cl)C[C@H]2C(=O)NC2(C#N)CC2)(c2ccc(Cl)cn2)C1` [Example 4, 3-(5-Chloro-pyridin-2-yl)-3-[(2S,4R)-4-[2-chloro-4-(2,2,2-trifluoro-ethoxy)-benzenesulfonyl]-2-(1-cyano-cyclopropylcarbamoyl)-pyrrolidine-1-carbonyl]-azetidine-1-carboxylic acid tert-butyl ester], the IC50 (human Cat L) is reported as 1240 nM and the IC50 (human Cat S) is reported as 2.75 nM.
For `CC(C)(C)OC(=O)N1CC(C(=O)N2C[C@H](S(=O)(=O)c3ccc(OCC(F)(F)F)cc3Cl)C[C@H]2C(=O)NC2(C#N)CC2)(c2ccc(Br)cn2)C1` [Example 5, 3-(5-Bromo-pyridin-2-yl)-3-[(2S,4R)-4-[2-chloro-4-(2,2,2-trifluoro-ethoxy)-benzenesulfonyl]-2-(1-cyano-cyclopropylcarbamoyl)-pyrrolidine-1-carbonyl]-azetidine-1-carboxylic acid tert-butyl ester], the IC50 (human Cat L) was 753 nM and the IC50 (human Cat S) was 3.69 nM.
In the case of `N#CC1(NC(=O)[C@@H]2C[C@@H](S(=O)(=O)c3ccc(OCC(F)(F)F)cc3Cl)CN2C(=O)C2(c3ccc(Cl)cn3)CNC2)CC1` [Example 6, (2S,4R)-1-[3-(5-Chloro-pyridin-2-yl)-azetidine-3-carbonyl]-4-[2-chloro-4-(2,2,2-trifluoro-ethoxy)-benzenesulfonyl]-pyrrolidine-2-carboxylic acid (1-cyano-cyclopropyl)-amide], the IC50 (human Cat L) is reported as 89.8 nM.
Molecule `N#CC1(NC(=O)[C@@H]2C[C@@H](S(=O)(=O)c3ccc(OCC(F)(F)F)cc3Cl)CN2C(=O)C2(c3ccc(Br)cn3)CNC2)CC1` [Example 7, (2S,4R)-1-[3-(5-Bromo-pyridin-2-yl)-azetidine-3-carbonyl]-4-[2-chloro-4-(2,2,2-trifluoro-ethoxy)-benzenesulfonyl]-pyrrolidine-2-carboxylic acid (1-cyano-cyclopropyl)-amide] has an IC50 (human Cat L) of 73.5 nM and an IC50 (human Cat S) of 3.82 nM.
With `N#CC1(NC(=O)[C@@H]2C[C@@H](S(=O)(=O)c3ccc(OCC(F)(F)F)cc3Cl)CN2C(=O)C2(c3ccc(Cl)cn3)CN(CC(F)F)C2)CC1` [Example 8, (2S,4R)-1-[3-(5-Chloro-pyridin-2-yl)-1-(2,2-difluoro-ethyl)-azetidine-3-carbonyl]-4-[2-chloro-4-(2,2,2-trifluoro-ethoxy)-benzenesulfonyl]-pyrrolidine-2-carboxylic acid (1-cyano-cyclopropyl)-amide] the IC50 (human Cat L) was 141 nM and the IC50 (human Cat S) was 0.694 nM.
`N#CC1(NC(=O)[C@@H]2C[C@@H](S(=O)(=O)c3ccc(OCC(F)(F)F)cc3Cl)CN2C(=O)C2(c3ccc(Br)cn3)CN(CC(F)F)C2)CC1` [Example 9, (2S,4R)-1-[3-(5-Bromo-pyridin-2-yl)-1-(2,2-difluoro-ethyl)-azetidine-3-carbonyl]-4-[2-chloro-4-(2,2,2-trifluoro-ethoxy)-benzenesulfonyl]-pyrrolidine-2-carboxylic acid (1-cyano-cyclopropyl)-amide] showed an IC50 (human Cat L) of 91.7 nM and an IC50 (human Cat S) of 0.779 nM.
`CC(C)(C)OC(=O)N1CC(C(=O)N2C[C@H](S(=O)(=O)c3ccccc3Cl)C[C@H]2C(=O)NC2(C#N)CC2)(c2ncc(Cl)cc2F)C1` [Example 10, 3-[(2S,4R)-4-(2-Chloro-benzenesulfonyl)-2-(1-cyano-cyclopropylcarbamoyl)-pyrrolidine-1-carbonyl]-3-(5-chloro-3-fluoro-pyridin-2-yl)-azetidine-1-carboxylic acid tert-butyl ester] showed an IC50 (human Cat L) of 194 nM and an IC50 (human Cat S) of 1.26 nM.
With `CC(C)(C)OC(=O)N1CC(C(=O)N2C[C@H](S(=O)(=O)c3ccccc3Cl)C[C@H]2C(=O)NC2(C#N)CC2)(c2ncc(Br)cc2F)C1` [Example 11, tert-Butyl 3-(5-bromo-3-fluoropyridin-2-yl)-3-((2S,4R)-4-(2-chlorophenylsulfonyl)-2-(1-cyanocyclopropylcarbamoyl)pyrrolidine-1-carbonyl)azetidine-1-carboxylate] the IC50 (human Cat L) was 70.5 nM and the IC50 (human Cat S) was 1.27 nM.
For `N#CC1(NC(=O)[C@@H]2C[C@@H](S(=O)(=O)c3ccccc3Cl)CN2C(=O)C2(c3ncc(Cl)cc3F)CNC2)CC1` [Example 12, (2S,4R)-1-(3-(5-Chloro-3-fluoropyridin-2-yl)azetidine-3-carbonyl)-4-(2-chlorophenylsulfonyl)-N-(1-cyanocyclopropyl)pyrrolidine-2-carboxamide], the IC50 (human Cat L) was 23.6 nM and the IC50 (human Cat S) was 1.07 nM.
In the case of `N#CC1(NC(=O)[C@@H]2C[C@@H](S(=O)(=O)c3ccccc3Cl)CN2C(=O)C2(c3ncc(Br)cc3F)CNC2)CC1` [Example 13, (2S,4R)-1-[3-(5-Bromo-3-fluoro-pyridin-2-yl)-azetidine-3-carbonyl]-4-(2-chloro-benzenesulfonyl)-pyrrolidine-2-carboxylic acid (1-cyano-cyclopropyl)-amide], the IC50 (human Cat L) is reported as 4.6 nM and the IC50 (human Cat S) is reported as 1.09 nM.
Work on `CN1CC(C(=O)N2C[C@H](S(=O)(=O)c3ccccc3Cl)C[C@H]2C(=O)NC2(C#N)CC2)(c2ncc(Br)cc2F)C1` [Example 14, (2S,4R)-1-[3-(5-Bromo-3-fluoro-pyridin-2-yl)-1-methyl-azetidine-3-carbonyl]-4-(2-chloro-benzenesulfonyl)-pyrrolidine-2-carboxylic acid (1-cyano-cyclopropyl)-amide] yielded an IC50 (human Cat L) of 12.5 nM.
In the case of `CCN1CC(C(=O)N2C[C@H](S(=O)(=O)c3ccccc3Cl)C[C@H]2C(=O)NC2(C#N)CC2)(c2ncc(Br)cc2F)C1` [Example 15, (2S,4R)-1-[3-(5-Bromo-3-fluoro-pyridin-2-yl)-1-ethyl-azetidine-3-carbonyl]-4-(2-chloro-benzenesulfonyl)-pyrrolidine-2-carboxylic acid (1-cyano-cyclopropyl)-amide], the IC50 (human Cat L) is reported as 20.1 nM and the IC50 (human Cat S) is reported as 0.721 nM.
Work on `CN1CC(C(=O)N2C[C@H](S(=O)(=O)c3ccccc3Cl)C[C@H]2C(=O)NC2(C#N)CC2)(c2ncc(Cl)cc2F)C1` [Example 16, (2S,4R)-4-(2-Chloro-benzenesulfonyl)-1-[3-(5-chloro-3-fluoro-pyridin-2-yl)-1-methyl-azetidine-3-carbonyl]-pyrrolidine-2-carboxylic acid (1-cyano-cyclopropyl)-amide] yielded an IC50 (human Cat L) of 39.8 nM and an IC50 (human Cat S) of 0.525 nM.
Work on `N#CC1(NC(=O)[C@@H]2C[C@@H](S(=O)(=O)c3ccc(OCC(F)(F)F)cc3Cl)CN2C(=O)C2(c3ncc(Br)cc3F)CNC2)CC1` [Example 19, (2S,4R)-1-(3-(5-Bromo-3-fluoropyridin-2-yl)azetidine-3-carbonyl)-4-(2-chloro-4-(2,2,2-trifluoroethoxy)phenylsulfonyl)-N-(1-cyanocyclopropyl)pyrrolidine-2-carboxamide] yielded an IC50 (human Cat L) of 33.8 nM and an IC50 (human Cat S) of 1.67 nM.
`C[C@H](Oc1ccc(S(=O)(=O)[C@@H]2C[C@@H](C(=O)NC3(C#N)CC3)N(C(=O)C3(c4ncc(Cl)cc4F)CCN3C(=O)OC(C)(C)C)C2)c(Cl)c1)C(F)(F)F` (stereo partly drawn) [Example 27, tert-butyl 2-(5-chloro-3-fluoropyridin-2-yl)-2-((2S,4R)-4-(2-chloro-4-((S)-1,1,1-trifluoropropan-2-yloxy)phenylsulfonyl)-2-(1-cyanocyclopropylcarbamoyl)pyrrolidine-1-carbonyl)azetidine-1-carboxylate] gave an IC50 (human Cat L) of 528 nM.
In the case of `C[C@H](Oc1ccc(S(=O)(=O)[C@@H]2C[C@@H](C(=O)NC3(C#N)CC3)N(C(=O)C3(c4ncc(Cl)cc4F)CCN3C(=O)OC(C)(C)C)C2)c(Cl)c1)C(F)(F)F` (stereo partly drawn) [Example 28, tert-butyl 2-(5-chloro-3-fluoropyridin-2-yl)-2-((2S,4R)-4-(2-chloro-4-((S)-1,1,1-trifluoropropan-2-yloxy)phenylsulfonyl)-2-(1-cyanocyclopropylcarbamoyl)pyrrolidine-1-carbonyl)azetidine-1-carboxylate], the IC50 (human Cat L) is reported as 556 nM.
